Experimental data reported in patent US20080194608A1, “6-Phenylhex-5-Enoic Acid Derivatives, Process for the Preparation Thereof, Pharmaceutical Compositions Comprising Them, and Therapeutic Uses Thereof” (priority 2005, published 2008).

Molecular target: T1, chimeric protein PPARγ-Gal4 (Homo sapiens, UniProt P37231)
T1 construct: expressed in transfected cells; host or cells: CV-1 cells (monkey kidney cells)
T1 sequence (P37231 238-503 limits assumed): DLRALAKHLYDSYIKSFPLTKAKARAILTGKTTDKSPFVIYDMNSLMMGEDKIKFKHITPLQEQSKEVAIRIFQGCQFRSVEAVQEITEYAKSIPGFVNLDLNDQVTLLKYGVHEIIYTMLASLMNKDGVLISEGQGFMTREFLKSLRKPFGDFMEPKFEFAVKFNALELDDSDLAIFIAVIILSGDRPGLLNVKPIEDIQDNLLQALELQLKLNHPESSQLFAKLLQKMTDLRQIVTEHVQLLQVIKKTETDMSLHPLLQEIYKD
Assay: PPARγ-Gal4 transactivation (luciferase reporter) test in CV-1 cells
Assay type: cell-based
Description: The measurement of the PPAR activation was performed according to a technique described by Lehmann et al. (J. Biol. Chem., 270, (1995), 12953-12956).
CV-1 cells (monkey kidney cells) are cotransfected with an expression vector for the chimeric protein PPARγ-Gal4 and with a “reporter” plasmid that allows expression of the luciferase gene placed under the control of a promoter comprising Gal4 response elements.
The cells are seeded in 96-well microplates and cotransfected using a commercial reagent with the reporter plasmid (pG5-tk-pGL3) and the expression vector for the chimeric protein (PPARγ-Gal4). After incubation for 4 hours, whole culture medium (comprising 10% foetal calf serum) is added to the wells. After 24 hours, the medium is removed and replaced with whole medium comprising the test products. The products are left in contact with the cells for 18 hours. The cells are then lysed and the luciferase activity is measured using a luminometer. A PPARγ activation factor can then be calculated by means of the activation of the expression of the reporter gene induced by the product (relative to the control cells that have received no product).
In the absence of the PPARγ ligand binding domain (vector expressing Gal4 alone), the luciferase activity measured in the presence of an agonist is zero.
The following transactivation result was obtained with a concentration of 10 μM on PPARγ.
The transactivation test using the expression of a chimeric protein Gal-4-PPARγ makes it possible to determine also whether an agonist functions as a “full” agonist or as a “partial” agonist in this system.
An agonist is “partial” in this system if it induces a weaker response, i.e. it has lower efficacy, than rosiglitazone, which is a “full” agonist. In concrete terms, in our system, the transactivation obtained at the plateau with a partial agonist will be between 20% and 50% of the maximum response (efficacy) at the plateau of rosiglitazone.

Row | Activation factor of the chimeric protein PPARγ-Gal4 (10 μM, CV-1 cells (monkey kidney cells), 18 hours contact, relative to control cells without agonist (=1)) | Concentration to reach the maximum stimulation of the PPARγ chimeric protein (CV-1 cells, Gal-4-PPARγ transactivation test) [µM] | Emax (transactivation at the plateau relative to maximum response (efficacy) of rosiglitazone, CV-1 cells, read-out: Maximum stimulation of the PPARγ chimeric protein obtained with rosiglitazone) [%] | Compound
1 | 5.8 |  |  | COc1ccccc1OC(CCC=Cc1cc(F)ccc1OCCc1nc(-c2ccccc2)oc1C)C(=O)O (stereo not drawn) [Example 44, 6-{5-fluoro-2-[2-(5-methyl-2-phenyloxazol-4-yl)ethoxy]phenyl}-2-(2-methoxyphenoxy)hex-5-enoic acid]
2 |  | 10 | 19 | CCc1ccc(CCOc2ccc(F)cc2C=CCCC(Oc2ccc(C(F)(F)F)cc2)C(=O)O)nc1 (stereo not drawn) [Example 51, 6-{2-[2-(5-ethylpyridin-2-yl)ethoxy]-5-fluorophenyl)-2-(4-trifluoromethyl-phenoxy)hex-5-enoic acid]
